Laboratory results reported in patent publication US20240000698A1, “COMPOSITION COMPRISING FERMENTED EXTRACT FROM PINE FOR PREVENTING SKIN WRINKLE, IMPROVING SKIN BARRIER FUNCTION, PREVENTING HAIR LOSS, PROMOTING HAIR GROWTH AND IMPROVING HAIR HEALTH AND METHOD FOR MANUFACTURING THE SAME” (TaedamBio Co., Ltd., priority 2022, published 2024).

Experiment: DPPH free radical scavenging activity measurement test
Assay type: biochemical
Method: The free radical scavenging activity measurement test was conducted using 2,2-diphenyl-1-picrylhydrazyl (DPPH) to evaluate the free radical scavenging activity contained in active oxygen, which is one of the antioxidant effects on the fermented pine tree extract obtained by the above method (testing institution: Korea Testing and Research Institute, test number: TNK-2022-000242). The fermented pine extract was prepared at 5, 10, 20, and 30% concentrations using ethanol, and as a positive control material, L-Ascorbic acid was weighed, and was prepared at concentrations of 0.0005, 0.001, 0.0015, and 0.002% using distilled water. Ethanol was used to prepare DPPH at concentrations of 0.2 mM. 100 μL of the preparations for each concentration were dispensed into a 96-well plate, 0.2 mM DPPH and 100 μL of Ethanol were added, and reacted at room temperature for 30 minutes in a light-shielding state, and then absorbance was measured at 517 nm wavelength. The DPPH free radical scavenging activity (%) was calculated using the following formula. Each experimental result was measured three times to calculate the mean and standard deviation, and the confidence interval was set at 95%. [formula] [formula]

IC50 (concentration representing 50% activity) (DPPH free radical scavenging): 0.0013%
SMILES: O=C1O[C@H]([C@@H](O)CO)C(O)=C1O [positive control substance, L-Ascorbic acid]
DPPH free radical scavenging activity (positive control 0.0015% in distilled water): 57.25%
DPPH free radical scavenging activity (positive control 0.002% in distilled water): 77.39%
